Counter-ions that a name gives are not always drawn. Like-named read-outs stand apart in the source and are kept apart here.
Key:
[1] = pre-clinical tests; cited from earlier work
[2] = Plasma levels of 3-OH gepirone after gepirone treatment; format: in vivo; details: animals and humans treated with gepirone
Excerpt: 3-OH gepirone has the same receptor binding, therefore, it is theorized that 3-OH-gepirone accounts for at least some of the effect noted with gepirone.

[3] = test system: post-synaptic receptors in the hippocampus; details: cited from earlier work
[4] = test system: subjects with anxiety; assay: Total cholesterol in random subset of 103 subjects from adatanserin study 790-210; format: in vivo, human
Excerpt: Adatanserin is another drug with similar properties. The studies done in adatanserin were largely done on anxiety, not depression. It was not known if the cholesterol levels in subjects with anxiety are elevated. (In the small sample studied below, the levels are not elevated). One paper in subjects with panic disorder claims that paroxetine treatment elevated plasma cholesterol (Kim E J, YU B-H, Increased Cholesterol Levels After Paroxetine Treatment in Patients with panic Disorder. J Clinical Psychopharmacol 2005; 25:597-599). However, to see if adatanserin might also have cholesterol lowering properties, the inventors of the present invention examined a random subset of 103 subjects from study 790-210.

[5] = test system: subjects with Major Depression; assay: Non-fasting total cholesterol at baseline and 8 weeks in 10 clinical studies of Gepirone-ER, meta-analysis; format: in vivo, human; details: for cholesterol levels, SSRI vs placebo: paroxetine one study n=143 p=0.045, fluoxetine three studies n=295 p=0.014, FIG. 4
Method: In 10 clinical studies of the antidepressant effects of Gepirone-ER comprised of 2302 subjects with Major Depression safety measurements included non-fasting measurements of cholesterol at baseline and at 8 weeks (endpoint). A JMP-7 one way ANOVA of the data provided results for individual studies which were then analyzed by meta-analysis. […] So, analysis of the effect of gepirone on cholesterol levels in the 40-59 year range was conducted.

[6] = test system: MDD subjects over or under 200 mg/dL cholesterol; assay: Gepirone-ER antidepressant efficacy (HAMD-17) by cholesterol level, 8 double-blind MDD studies; format: in vivo, human; details: for HAMD responders percent: responder = 50% decrease in HAMD-17
Excerpt: The effects of cholesterol on gepirone-ER efficacy was investigated. […] As such, it was expected that the results for gepirone to be similar to that of Fava. […] Corresponding placebo values were generated as well.
The total population used was 10 times greater than the Fava Study addressed in the background section (Sonawalla S B, Papakostas G I, Petersen T J, Yeung A S, Smith M M, Sickinger A H, Gordon J, Israel J A, Tedlow J R, Lamon-Fava S, Fava M, Elevated cholesterol levels associated with nonresponse to fluoxetine treatment in major depressive disorder. Psychosomatics. 2002; 43:310-6). Using the cutoff value of 200 mg/dL, there were 1264 subjects above 200 mg/dL and 1225 subjects below. […] The respective average cholesterol levels were 234.3±29.7 and 169.9±21.2, similar to the Fava data.
The results there compared by t-test of odds ratio programs. The results for gepirone were examiner in 8 MDD studies. The low cholesterol group treated with gepirone-ER had 41.2% responders compared to the high cholesterol treated group 43.3% responders, a […] favoring the high cholesterol group (p=0.58)(Table 2). When the gepirone ER and placebo groups (Table 2) are compared, the high cholesterol gepirone treated group is 13.6% better than placebo (p=0.002), whereas the difference between the low cholesterol gepirone and placebo group is 0.5%, (p=0.602). However, the over 200 placebo group is 11% less than the under 200 placebo group (p=0.004).

[7] = test system: depressed subjects; details: open label, cited from earlier work

SMILES: c1cnc(N2CCNCC2)nc1 [1-PP, 1-(2-pyrimidinyl)piperazine]
- antidepressant-like characteristics [1]: did not exhibit antidepressant-like characteristics

SMILES: CC1(C)CC(=O)N(CCCCN2CCN(c3ncccn3)CC2)C(=O)C1O (centres unmarked) [3-OH gepirone]
- plasma levels of metabolite relative to gepirone [2]: greater than that of gepirone
- type of agonism at post-synaptic receptors [3]: full agonism

SMILES: O=C(NCCN1CCN(c2ncccn2)CC1)C12CC3CC(CC(C3)C1)C2 [Adatanserin, N-[2-[4-(2-pyrimidinyl)-1-piperazinyl]ethyl]tricyclo[3.3.1.1^3,7]decane-1-carboxamide]
- Difference in cholesterol change between adatanserin and placebo ([4]; adatanserin n=76 vs placebo n=27, p=0.011): 15.22 mg/dL
- Total Cholesterol after treatment, mean (SD) ([4]; n=76, after treatment): 197.46 (44.1) mg/dL
- Total Cholesterol at baseline, mean (SD) ([4]; n=76, at baseline): 204.46 (46.4) mg/dL
- Change in Total Cholesterol ([4]; n=76, baseline to after treatment): -7.00 mg/dL

SMILES: CC1(C)CC(=O)N(CCCCN2CCN(c3ncccn3)CC2)C(=O)C1 [Gepirone, 4,4-dimethyl-1-[4-[-(2-pyrimidinyl)-1-piperazinyl]-butyl]-2,6-piperidinedione hydrochloride]
- average drop in total cholesterol, meta-analysis ([5]; 10 studies, p=0.016, FIG. 6): 2.8 mg/dL
- number of studies with lower total cholesterol levels ([5]; of 10 studies): 7
- change in cholesterol levels ([5]; patients in the 40-59 year range, FIG. 7): -5 mg/dL
- HAMD change from baseline Δ means ± SD ([6]; cholesterol over 200 mg/dL, n=344, p=0.001 vs placebo): −9.58 ± 7.2
- HAMD responders percent ([6]; cholesterol over 200 mg/dL, n=344, p=0.002 vs placebo): 43.3%
- HAMD change from baseline Δ means ± SD ([6]; cholesterol under 200 mg/dL, n=354, p=0.656 vs placebo): −9.48 ± 7.4
- HAMD responders percent ([6]; cholesterol under 200 mg/dL, n=354, p=0.602 vs placebo): 41.2%
- difference in responders vs placebo ([6]; high cholesterol group (over 200 mg/dL), p=0.002): 13.6%
- HAMD change from baseline, difference in means vs placebo ([6]; high cholesterol group, p=0.001): −1.77 points
- difference in responders vs placebo ([6]; low cholesterol group (under 200 mg/dL), p=0.602): 0.5%
- HAMD change from baseline, standard difference in means vs placebo ([6]; low cholesterol group, p=0.656): −0.02 points
- HAMD change from baseline, over vs. under Δ(Δ means) ([6]; over 200 vs under 200 mg/dL, p=0.856): 0.10

SMILES: CNCCC(Oc1ccc(C(F)(F)F)cc1)c1ccccc1 (centres unmarked) [fluoxetine]
- cholesterol levels, SSRI vs placebo [5]: placebo statistically better then fluoxetine
- response rate (50% decrease from baseline HAMD-17) ([7]; cholesterol above 200 mg/dL): 46%
- response rate (50% decrease from baseline HAMD-17) ([7]; cholesterol below 200 mg/dL): 54%

SMILES: Fc1ccc([C@@H]2CCNC[C@H]2COc2ccc3c(c2)OCO3)cc1 [paroxetine]
- cholesterol levels, SSRI vs placebo [5]: placebo statistically better than paroxetine

Reference: patent publication US20130267533A1, “5HT1A AGONISTS FOR TREATMENT OF HIGH CHOLESTEROL” (FABRE-KRAMER PHARMACEUTICALS, INC., priority 2012, published 2013)
